# Results: patent publication US8859559B2, “Substituted pyrazines and their use in the treatment of disease” (Boehringer Ingelheim International GmbH, priority 2011, dated 2014)
# Molecular target: T1, ENaC (Epithelial Sodium Channel) (Mus musculus, UniProt Q61180+Q9WU38+Q9WU39)
# T1 construct: Mouse kidney M-1 cells were cultivated in DMEM; endogenous in cells; host or cells: Mouse kidney M-1 cells (dexamethasone-treated, on transwell filters)
# T1 sequence (Q61180 1-699): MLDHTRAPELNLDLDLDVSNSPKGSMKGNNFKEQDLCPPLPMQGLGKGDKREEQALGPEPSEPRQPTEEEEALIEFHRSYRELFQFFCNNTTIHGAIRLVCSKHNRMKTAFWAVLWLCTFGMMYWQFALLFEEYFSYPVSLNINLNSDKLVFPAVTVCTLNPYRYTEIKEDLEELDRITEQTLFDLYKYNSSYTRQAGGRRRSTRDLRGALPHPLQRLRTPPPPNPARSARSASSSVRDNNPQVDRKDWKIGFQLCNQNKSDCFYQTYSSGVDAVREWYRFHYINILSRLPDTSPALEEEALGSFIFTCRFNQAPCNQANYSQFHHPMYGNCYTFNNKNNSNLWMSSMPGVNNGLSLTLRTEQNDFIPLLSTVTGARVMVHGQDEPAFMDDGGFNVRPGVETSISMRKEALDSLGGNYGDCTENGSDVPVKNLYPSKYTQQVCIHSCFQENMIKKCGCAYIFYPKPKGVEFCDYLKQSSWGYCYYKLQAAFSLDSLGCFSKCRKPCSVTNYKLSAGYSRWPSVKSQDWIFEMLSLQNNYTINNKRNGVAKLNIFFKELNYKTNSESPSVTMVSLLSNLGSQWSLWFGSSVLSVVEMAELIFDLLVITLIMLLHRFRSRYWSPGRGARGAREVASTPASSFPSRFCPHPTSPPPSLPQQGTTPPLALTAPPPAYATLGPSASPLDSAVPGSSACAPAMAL
# T1 sequence (Q9WU38 1-638): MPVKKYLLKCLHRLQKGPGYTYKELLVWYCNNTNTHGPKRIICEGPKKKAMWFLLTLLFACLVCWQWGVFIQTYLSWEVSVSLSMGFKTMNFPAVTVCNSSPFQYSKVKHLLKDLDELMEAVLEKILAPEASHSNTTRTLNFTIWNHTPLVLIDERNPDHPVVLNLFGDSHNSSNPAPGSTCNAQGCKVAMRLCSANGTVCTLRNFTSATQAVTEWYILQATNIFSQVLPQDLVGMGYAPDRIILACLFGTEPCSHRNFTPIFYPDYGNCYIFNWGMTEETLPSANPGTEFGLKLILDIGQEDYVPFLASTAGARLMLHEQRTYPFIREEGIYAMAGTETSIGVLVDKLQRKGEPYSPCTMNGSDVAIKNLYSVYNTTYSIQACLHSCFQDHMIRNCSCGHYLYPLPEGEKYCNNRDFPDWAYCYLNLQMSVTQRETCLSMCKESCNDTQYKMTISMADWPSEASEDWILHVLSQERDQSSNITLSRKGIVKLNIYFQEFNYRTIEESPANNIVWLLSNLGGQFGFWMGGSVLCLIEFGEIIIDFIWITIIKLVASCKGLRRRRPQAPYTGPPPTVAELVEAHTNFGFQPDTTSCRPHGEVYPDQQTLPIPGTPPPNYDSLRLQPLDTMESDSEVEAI
# T1 sequence (Q9WU39 1-655): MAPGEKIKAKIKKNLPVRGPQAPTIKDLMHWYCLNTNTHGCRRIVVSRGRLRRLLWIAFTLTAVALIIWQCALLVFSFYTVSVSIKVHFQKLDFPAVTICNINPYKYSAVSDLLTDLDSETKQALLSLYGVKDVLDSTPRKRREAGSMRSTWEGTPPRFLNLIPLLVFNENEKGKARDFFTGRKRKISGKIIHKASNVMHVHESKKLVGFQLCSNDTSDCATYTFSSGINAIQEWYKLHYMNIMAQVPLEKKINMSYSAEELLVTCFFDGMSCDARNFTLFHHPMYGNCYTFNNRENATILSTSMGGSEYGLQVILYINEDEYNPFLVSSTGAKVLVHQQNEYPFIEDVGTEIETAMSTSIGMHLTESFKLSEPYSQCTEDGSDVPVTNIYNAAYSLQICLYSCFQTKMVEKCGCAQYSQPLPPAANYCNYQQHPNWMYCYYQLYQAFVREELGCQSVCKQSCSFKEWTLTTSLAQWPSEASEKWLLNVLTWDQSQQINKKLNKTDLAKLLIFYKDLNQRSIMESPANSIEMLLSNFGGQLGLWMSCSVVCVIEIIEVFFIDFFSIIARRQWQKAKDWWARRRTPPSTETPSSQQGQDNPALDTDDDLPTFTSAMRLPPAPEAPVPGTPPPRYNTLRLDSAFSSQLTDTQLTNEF
# Assay: Ussing chamber: inhibition of amiloride sensitive short circuit current (I_sc) in M-1 cells
# Format: cell-based
# Conditions: mouse kidney M-1 cells
# Summary of the method: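 Mouse kidney M-1 cells grown 10-12 days on transwell filters with 5 μM dexamethasone; I_sc recorded under voltage clamp at 37° C in Caco-2 transport buffer. Compounds added apically at 3 μM or 1-3-10 μM; 3 μM apical amiloride added at the end defines the amiloride-sensitive current; results as % inhibition of amiloride effect or IC50.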
row,IC50 [nM],Compound
1,31,NC(=NC(=O)c1nc(Cl)c(N)nc1N)NC1CCN(Cc2cccc(-c3cn(CCOCCOCCOCCNC(=O)c4cc(OCCOCCOCCO)cc(OCCOCCOCCO)c4)nn3)c2)CC1 [Example 5.10]
2,2,N=C(N)c1ccc(CN2CCC(NC(N)=NC(=O)c3nc(Cl)c(N)nc3N)CC2)cc1 [Example 1.55]
3,7,N/C(=N\C(=O)c1nc(Cl)c(N)nc1N)NC1CCN(Cc2ccc(B(O)O)cc2)CC1 [Example 1.15]
4,42,N/C(=N\C(=O)c1nc(Cl)c(N)nc1N)NC1CCN(Cc2ccc(OCc3cn(CCOCCOCCOCCOCCOCCO)nn3)cc2)CC1 [Example 5.1]
5,7,CN(C)Cc1cn(CCc2ccc(CN3CCC(NC(N)=NC(=O)c4nc(Cl)c(N)nc4N)CC3)cc2)nn1 [Example 3.4]
6,6,COCCOc1ccc(C(=O)NCCOCCOCCNC(=O)c2ccc(CN3CCC(NC(N)=NC(=O)c4nc(Cl)c(N)nc4N)CC3)cc2)cc1 [Example 1.49]
7,3,CC(C)(C)[Si](C)(C)OCCN(CCO[Si](C)(C)C(C)(C)C)C(=O)c1ccc(=O)n(CCc2cn(-c3ccc(CN4CCC(NC(N)=NC(=O)c5nc(Cl)c(N)nc5N)CC4)cc3)nn2)c1 [Example 3.17]
8,11,N#Cc1ccc(OCCN2CCC(NC(N)=NC(=O)c3nc(Cl)c(N)nc3N)CC2)cc1 [Example 1.21]
9,20,NC(=NC(=O)c1nc(Cl)c(N)nc1N)NC1CCN(Cc2ccccc2)C1 (stereo not shown) [Example 1.26]
10,2,NC(=NC(=O)c1nc(Cl)c(N)nc1N)NC1CCN(Cc2ccc(C(=O)NCCc3cn(CCCO)cn3)cc2)CC1 [Example 1.52]
11,1,NC(=NC(=O)c1nc(Cl)c(N)nc1N)NC1CCN(Cc2cccc(-c3cn(CCOCCOCCOCCNCCOCCOCCOC(c4ccccc4)(c4ccccc4)c4ccccc4)nn3)c2)CC1 [Example 3.40]
12,9,CN(Cc1cn(CCc2ccc(CN3CCC(N/C(N)=N/C(=O)c4nc(Cl)c(N)nc4N)CC3)cc2)nn1)C(=O)CCN [Example 4.1]
13,7,COC(=O)c1ccc(=O)n(Cc2ccc(CN3CCC(NC(N)=NC(=O)c4nc(Cl)c(N)nc4N)CC3)cc2)c1 [Example 1.5]
